Test results reported in the CheMixHub viscosity set.
± gives the uncertainty stated by the source.

Assay: xn = mol fraction of the nth substance listed

CCCOCCO + OCCOCCO
101 kPa
Settings | viscosity [mPa·s]
293.15 K, x1 = 0.0522 | 34.91 ± 0.39
293.15 K, x1 = 0.1049 | 31.33 ± 0.36
293.15 K, x1 = 0.2035 | 25.38 ± 0.3
293.15 K, x1 = 0.2926 | 20.65 ± 0.24
293.15 K, x1 = 0.3996 | 15.84 ± 0.18
293.15 K, x1 = 0.4555 | 13.73 ± 0.15
293.15 K, x1 = 0.4975 | 12.32 ± 0.13
293.15 K, x1 = 0.5488 | 10.8 ± 0.11
293.15 K, x1 = 0.5924 | 9.666 ± 0.097
293.15 K, x1 = 0.7043 | 7.291 ± 0.076
293.15 K, x1 = 0.7921 | 5.699 ± 0.058
293.15 K, x1 = 0.9015 | 3.905 ± 0.04
293.15 K, x1 = 0.9536 | 3.147 ± 0.031
298.15 K, x1 = 0.053 | 26.82 ± 0.34
298.15 K, x1 = 0.1014 | 24.15 ± 0.31
298.15 K, x1 = 0.1985 | 19.48 ± 0.26
298.15 K, x1 = 0.3104 | 15.16 ± 0.2
298.15 K, x1 = 0.4057 | 12.25 ± 0.16
298.15 K, x1 = 0.4511 | 11.07 ± 0.14
298.15 K, x1 = 0.4975 | 9.977 ± 0.12
298.15 K, x1 = 0.5511 | 8.842 ± 0.11
298.15 K, x1 = 0.6049 | 7.816 ± 0.095
298.15 K, x1 = 0.6981 | 6.239 ± 0.073
298.15 K, x1 = 0.8017 | 4.717 ± 0.056
298.15 K, x1 = 0.89 | 3.562 ± 0.037
298.15 K, x1 = 0.9483 | 2.89 ± 0.03
303.15 K, x1 = 0.0608 | 19.27 ± 0.31
303.15 K, x1 = 0.1099 | 17.35 ± 0.28
303.15 K, x1 = 0.1927 | 14.48 ± 0.22
303.15 K, x1 = 0.3017 | 11.38 ± 0.17
303.15 K, x1 = 0.3982 | 9.174 ± 0.14
303.15 K, x1 = 0.4498 | 8.171 ± 0.13
303.15 K, x1 = 0.4916 | 7.433 ± 0.12
303.15 K, x1 = 0.5511 | 6.487 ± 0.11
303.15 K, x1 = 0.6073 | 5.701 ± 0.093
303.15 K, x1 = 0.7083 | 4.5 ± 0.073
303.15 K, x1 = 0.7941 | 3.671 ± 0.052
303.15 K, x1 = 0.9072 | 2.776 ± 0.036
303.15 K, x1 = 0.9353 | 2.579 ± 0.028

CCC(=O)OC + c1ccccc1
viscosity [mPa·s]
Settings | 298.15 K | 308.15 K | 313.15 K | 318.15 K
101 kPa, x2 = 0.1014 | 0.435 ± 0.005 | – | 0.373 ± 0.004 | –
101 kPa, x2 = 0.1972 | 0.444 ± 0.005 | – | 0.38 ± 0.004 | –
101 kPa, x2 = 0.3002 | 0.453 ± 0.005 | – | 0.387 ± 0.004 | –
101 kPa, x2 = 0.3996 | 0.466 ± 0.005 | – | 0.397 ± 0.004 | –
101 kPa, x2 = 0.5012 | 0.48 ± 0.005 | – | 0.407 ± 0.004 | –
101 kPa, x2 = 0.6036 | 0.496 ± 0.005 | – | 0.419 ± 0.004 | –
101 kPa, x2 = 0.6961 | 0.513 ± 0.005 | – | 0.43 ± 0.004 | –
101 kPa, x2 = 0.8009 | 0.536 ± 0.005 | – | 0.447 ± 0.004 | –
101 kPa, x2 = 0.898 | 0.561 ± 0.005 | – | 0.465 ± 0.005 | –
101.3 kPa, x1 = 0.0415 | – | 0.53 ± 0.005 | – | 0.466 ± 0.004
101.3 kPa, x1 = 0.1037 | – | 0.52 ± 0.005 | – | 0.461 ± 0.004
101.3 kPa, x1 = 0.2041 | – | 0.505 ± 0.005 | – | 0.453 ± 0.004
101.3 kPa, x1 = 0.3026 | – | 0.492 ± 0.005 | – | 0.446 ± 0.004
101.3 kPa, x1 = 0.4053 | – | 0.48 ± 0.004 | – | 0.44 ± 0.004
101.3 kPa, x1 = 0.4569 | – | 0.474 ± 0.004 | – | 0.437 ± 0.004
101.3 kPa, x1 = 0.6013 | – | 0.462 ± 0.004 | – | 0.43 ± 0.004
101.3 kPa, x1 = 0.7026 | – | 0.453 ± 0.004 | – | 0.425 ± 0.004
101.3 kPa, x1 = 0.8018 | – | 0.447 ± 0.004 | – | 0.43 ± 0.02
101.3 kPa, x1 = 0.9039 | – | 0.441 ± 0.004 | – | 0.418 ± 0.004
101.3 kPa, x1 = 0.9674 | – | 0.438 ± 0.004 | – | 0.417 ± 0.004
